How the values were obtained:
rat = details: orotic acid administered to a rat, Non-Patent Document 2; cited from earlier work
male Wistar rat [1] = test: Effect of orotic acid on core body temperature during treadmill exercise; assay type: in vivo; details: treadmill 20 m/min for 30 minutes
Excerpt: The body temperature elevation suppressing action of the body temperature elevation suppressor according to the embodiment of the present invention can be measured by a method for measuring the core body temperature during exercise. The core body temperature during exercise can be measured in accordance with a known method, for example, a method described in the article by Takahashi et al. (Nature 583: 109-114, 2020) and the like. Specifically, the measurement can be performed in the following manner. A rat is placed in a treadmill metabolism chamber for small animals having an inclination of 10°, and after measuring the core body temperature at rest for 20 minutes, a single dose of a drug (orotic acids) is administered intraperitoneally. After the administration, the rat is left in a rest state for 15 minutes, and then exercise is started. The exercise is started at a running speed of 5 m/min, the running speed is increased to 20 m/min over 5 minutes, and the core body temperature is measured in the same manner as the method for measuring the core body temperature at rest. In a case where the core body temperature elevation during exercise is suppressed as compared with a case where the orotic acids are not administered, it can be determined that the orotic acids have the body temperature elevation suppressing action. A 10-week-old male Wistar rat was used, and a one-week preliminary breeding period was provided before the day of an experiment. During the experiment, room temperature was maintained at 22±2° C. After the preliminary breeding, a telemetry (trade name: TRM54P, available from KAHA Sciences) for measuring the body temperature was indwelled in the abdominal cavity, and a running test was performed after a recovery period of one week. Note that in the experiment, after 300 mg/kg orotic acid or a vehicle (physiological saline) was intraperitoneally administered in a rest state, treadmill exercise (20 m/min) was performed for 30 minutes, and the measurement was performed until 1 hour after the end of the exercise. The measurement items were core body temperature, a blood pressure, a heart rate, and breath gas metabolism. From the obtained oxygen/carbon dioxide intake, exercise economy was calculated. The orotic acid was used in a free form.

male Wistar rat [2] = test: Effect of orotic acid on core body temperature at rest (telemetry, breath gas analysis, spontaneous activity); assay type: in vivo
Excerpt: The body temperature lowering action of the body temperature lowering agent according to the embodiment of the present invention can be measured by a method for measuring the core body temperature at rest. The core body temperature at rest can be measured in accordance with a known method, for example, the method described in an article of Takahashi et al. (Nature 583: 109-114, 2020) and the like. Specifically, the measurement can be performed in the following manner. The core body temperature at rest is measured using a TRM54P Rat Telemetry System (available from KAHA Sciences) and SmartPad (TR181: available from KAHA Sciences) and quantified. The main body of TRM54P Rat Telemetry System is indwelled in the abdominal cavity of a test animal for measurement. All experiments are performed in the light phase, and on the day of the experiments, a rat is fasted 2 hours before start of the test to eliminate the effect of food-induced heat production. After the core body temperature at rest is measured for 20 minutes, a drug (orotic acids) or vehicle is intraperitoneally administered, and the core body temperature is measured for 120 minutes. In a case where the core body temperature at rest is lowered as compared with a case where orotic acids are not administered, it can be determined that the orotic acids have a body temperature lowering action. A 10-week-old male Wistar rat was used, and a one-week preliminary breeding period was provided before the day of an experiment. During the experiment, room temperature was maintained at 22±2° C. After the preliminary breeding, a telemetry (TRM54P, available from KAHA Sciences) for measuring the body temperature was indwelled in the abdominal cavity, and a recovery period and an acclimation period were provided for one week each. 300 mg/kg orotic acid, 30 mg/kg orotic acid, or a vehicle (1% carboxymethyl cellulose) was intraperitoneally administered to examine the effect on the core body temperature at rest. In addition to the core body temperature and a heart rate, an oxygen/carbon dioxide intake was measured using a breath gas analyzer (trade name: Oxymax, available from Columbus Instruments) to calculate a respiratory exchange ratio (also referred to as RER) and an amount of heat production. In addition, the amount of spontaneous activity was measured using an infrared beam sensor (trade name: beam sensor type spontaneous activity amount measuring device, available from Panlab). Note that in the experiment, the rat was placed under fasting for 2 hours before the start of the experiment, and the core body temperature at rest was measured for 20 minutes. Thereafter, the orotic acid or vehicle was intraperitoneally administered, and the measurement was performed until 2 hours later. The orotic acid was used in a free form.

Q: With O=C(O)c1cc(=O)[nH]c(=O)[nH]1 [orotic acid] as the molecule, how does the body temperature (rat) read?
A: not lowered

Q: And the exercise economy (male Wistar rat [1]; 300 mg/kg intraperitoneal vs vehicle (physiological saline), FIG. 8)?
A: increased

Q: And the “excessive core body temperature elevation during exercise” value (male Wistar rat [1]; 300 mg/kg intraperitoneal vs vehicle, FIG. 5)?
A: suppressed

Q: What about the “heart rate during exercise” value (male Wistar rat [1]; 300 mg/kg intraperitoneal vs vehicle, FIG. 6) of the same molecule?
A: significantly decreased

Q: And the “amount of heat production during exercise” value (male Wistar rat [1]; 300 mg/kg intraperitoneal vs vehicle, FIG. 7)?
A: lowered

Q: And the “amount of spontaneous activity at rest” value (male Wistar rat [2]; 30 mg/kg and 300 mg/kg intraperitoneal vs vehicle, infrared beam sensor, FIG. 4)?
A: no difference between the groups

Q: What about the “core body temperature at rest, dose dependence” value (male Wistar rat [2]; 30 mg/kg and 300 mg/kg intraperitoneal, FIG. 1) of the same molecule?
A: decreased in a concentration dependent manner

Q: And the “heart rate at rest” value (male Wistar rat [2]; 30 mg/kg and 300 mg/kg intraperitoneal, FIG. 2)?
A: did not fluctuate

Q: And the “core body temperature at rest” value (male Wistar rat [2]; 300 mg/kg intraperitoneal, vs vehicle (1% carboxymethyl cellulose), measured until 2 hours after administration, FIG. 1)?
A: significantly decreased

Q: And the “amount of heat production at rest” value (male Wistar rat [2]; 300 mg/kg intraperitoneal, vs vehicle, breath gas analyzer, FIG. 3)?
A: significantly decreased

Q: What about the “contraction phase, diastole phase and mean blood pressure at rest” value (male Wistar rat [2]; orotic acid administered groups (30 and 300 mg/kg intraperitoneal), data not shown) of the same molecule?
A: significantly increased
